{"source": "paper PMC6153520", "about": "“Proteasome inhibition and mechanism of resistance to a synthetic, library-based hexapeptide” (Investigational New Drugs, 2018)", "key": {"[1]": {"target": "T1, chymotrypsin-like proteasome activity (Homo sapiens, UniProt P28074)", "T1 construct": "chymotrypsin-like proteasome activity in intact THP1 cells after 1 h exposure; endogenous in cells; host or cells: THP1 (wild type)", "assay": "Proteasome-Glo cell-based assay in intact THP1 cells", "details": "1 h exposure, mean of 3 experiments ± S.D., read-out: IC50, inhibition of chymotrypsin-like proteasome activity"}, "[2]": {"test_system": "THP1/WT", "assay_type": "cell-based, human", "details": "72 h", "procedure": "Human monocytic/macrophage THP1 cells (ATTC, Manassas, USA) were cultured in RPMI-1640 medium supplemented with 5% fetal calf serum, 20 mM HEPES, 2 mM glutamine and 100 μg/ml penicillin/ streptomycin at 5% CO2 and 37 °C. Cell cultures were seeded at a density of 3 × 10^5 cells/ml and refreshed twice weekly. […] Some specific experiments also included THP1/BTZ100 cells that were cultured in the absence of BTZ for 6 months (further designated as THP1/BTZ (−100) cells). Mouse thymoma EL4 and human multiple myeloma H929 cells were cultured in RPMI-1640 medium supplemented with 8% fetal calf serum and 100 μg/ml penicillin/streptomycin at 5% CO2 and 37 °C.\n(§1) Evaluation of drug sensitivity was carried out as described before. Cells were seeded at an initial density of 1.25 × 10^5 cells/ml in individual wells of a 24-well plate containing up to 50 μl of drug solutions. Inhibition of cell growth was determined after 72 h of incubation at 37 °C by determining the number of viable cells […] using trypan blue exclusion. The drug concentration required to inhibit cell growth by 50% compared to untreated controls was defined as the IC50."}, "[3]": {"test_system": "proteasome β-subunits", "assay": "Proteasome affinity labelling and recovery in H929 cells", "assay_type": "cell-based, human", "details": "5 μM MG132 (1 h) or 20 nM bortezomib (1 h)"}, "[4]": {"test_system": "THP1/WT cells", "assay": "Western blot, accumulation of ubiquitinated proteins", "assay_type": "cell-based, human", "details": "24 h exposure", "procedure": "Western blot analysis to determine protein levels of (i) β1, β2 and β5 proteasome subunits and (ii) the accumulation of ubiquitinated proteins after treatment with 4A6 was performed essentially as described previously. Cells were harvested in the mid-log phase of growth and washed 3 times with ice-cold buffered saline pH 7.4. Total cell lysates of 5 × 10^6 cells were prepared by resuspension in 500 μl lysis buffer containing: 50 mM Tris-HCl (pH 7.6), 5 mM dithiotreitol, 20 μl PIC (Protease Inhibitor Cocktail; 1 tablet/ml H2O), 20% glycerol and 0.5% NP-40. The suspension was sonicated (MSE sonicator, amplitude 7, for 3 × 5 s with 20 s time intervals at 4 °C) and centrifuged in an Eppendorf micro centrifuge (5 min, 12,000 rpm, 4 °C). Protein content of the supernatant was determined by the Bio-Rad protein assay. 20–30 μg of total cell lysates were fractionated on a 10% polyacrylamide gel containing SDS and transferred onto a PVDF membrane. The membranes were pre-incubated overnight at 4 °C in blocking buffer (5% Bio-Rad Blocker in TBS-T; 10 mM Tris-HCl, pH 8.0, 0.15 M NaCl, 0.1% Tween-20) to prevent non-specific antibody binding. After blocking, the membranes were incubated for 1 h at room temperature with primary antibodies for proteasome subunit β1 (1:1000, PW8140), β2 (1:1000, PW8145) and β5 (1:1000, PW8895) or ubiquitin (1:1000, Santa-Cruz, SC-8017). An antibody to α-tubulin was used (1:1000, Santa Cruz, sc-8035) to check and normalize for any loading differences. After 3 washing steps with TBS-T, the membranes were incubated for 1 h with HRP-labelled donkey-anti-rabbit (1:6000, Amersham, UK) or goat-anti-mouse (1:6000, Dako, Glostrup, Denmark) as secondary antibody. Detection of antibody binding was followed by chemoluminescence using Supersignal (Pierce Biotechnology, Rockford, USA) according to the manufacturers’ instructions. […] The signal intensity was determined densitometrically using Quantity One software (Bio-Rad) and was expressed relative to the intensity of the α-tubulin signal."}, "[5]": {"test_system": "THP1 cells", "assay": "Growth inhibition with or without Ruthenium Red", "assay_type": "cell-based, human", "details": "72 h, with or without 25 μM Ruthenium Red", "procedure": "as §1"}, "[6]": {"test_system": "NCI60 tumor cell line panel", "assay": "NCI60 panel COMPARE analysis", "assay_type": "cell-based, human", "details": "mean log10GI50, 2 days of drug exposure"}, "[7]": {"test_system": "CCRF-CEM", "assay": "NCI60 tumor cell line screen", "assay_type": "cell-based", "details": "Homo sapiens, Leukemia, 48 h drug exposure, read-out: LOG10 GI50"}, "[8]": {"test_system": "K-562", "assay": "NCI60 tumor cell line screen", "assay_type": "cell-based", "details": "Homo sapiens, K562, Leukemia, 48 h drug exposure, read-out: LOG10 GI50 (converted)"}, "[9]": {"test_system": "A549/ATCC", "assay": "NCI60 tumor cell line screen", "assay_type": "cell-based", "details": "Homo sapiens, NSC Lung, 48 h drug exposure, read-out: LOG10 GI50 (converted)"}, "[10]": {"test_system": "NCI-H226", "assay": "NCI60 tumor cell line screen", "assay_type": "cell-based", "details": "Homo sapiens, NSC Lung, 48 h drug exposure, read-out: LOG10 GI50 (converted)"}, "[11]": {"test_system": "COLO 205", "assay": "NCI60 tumor cell line screen", "assay_type": "cell-based", "details": "Homo sapiens, Colon, 48 h drug exposure, read-out: LOG10 GI50 (converted)"}, "[12]": {"test_system": "HT29", "assay": "NCI60 tumor cell line screen", "assay_type": "cell-based", "details": "Homo sapiens, HT-29, Colon, 48 h drug exposure, read-out: LOG10 GI50 (converted)"}, "[13]": {"test_system": "SNB-19", "assay": "NCI60 tumor cell line screen", "assay_type": "cell-based", "details": "Homo sapiens, CNS, 48 h drug exposure, read-out: LOG10 GI50 (converted)"}, "[14]": {"test_system": "SNB-75", "assay": "NCI60 tumor cell line screen", "assay_type": "cell-based", "details": "Homo sapiens, CNS, 48 h drug exposure, read-out: LOG10 GI50 (converted)"}, "[15]": {"test_system": "SK-MEL-5", "assay": "NCI60 tumor cell line screen", "assay_type": "cell-based", "details": "Homo sapiens, Melanoma, 48 h drug exposure, read-out: LOG10 GI50 (converted)"}, "[16]": {"test_system": "SK-OV-3", "assay": "NCI60 tumor cell line screen", "assay_type": "cell-based", "details": "Homo sapiens, Ovarian, 48 h drug exposure, read-out: LOG10 GI50 (converted)"}, "[17]": {"test_system": "DU-145", "assay": "NCI60 tumor cell line screen", "assay_type": "cell-based", "details": "Homo sapiens, Prostate, 48 h drug exposure, read-out: LOG10 GI50 (converted)"}, "[18]": {"test_system": "HS 578T", "assay": "NCI60 tumor cell line screen", "assay_type": "cell-based", "details": "Homo sapiens, Breast, 48 h drug exposure, read-out: LOG10 GI50 (converted)"}, "[19]": {"test_system": "THP1/WT", "design": "method as in Oerlemans et al. [46]", "details": "ref Oerlemans et al. [46], cited from earlier work"}, "[20]": {"test_system": "β5 subunit of the proteasome", "design": "method as in PMID 16286248, PMID 16455650", "details": "ref [15], [21]; read-out: IC50, proteasome inhibition; cited from earlier work"}, "[21]": {"test_system": "THP1/BTZ50", "details": "relative to THP1/WT; ref Oerlemans et al. [46]; cited from earlier work"}, "[22]": {"test_system": "THP1/BTZ100", "details": "relative to THP1/WT; ref Oerlemans et al. [46]; cited from earlier work"}, "[23]": {"test_system": "THP1/BTZ200", "details": "relative to THP1/WT; ref Oerlemans et al. [46]; cited from earlier work"}, "[24]": {"test_system": "THP1/BTZ200 cells", "assay": "Apoptosis assay (Annexin-V/7-AAD flow cytometry)", "assay_type": "cell-based, human", "details": "24 h, 4A6 over 0–25 μM", "procedure": "(§2) Induction of apoptosis was analyzed by flow cytometry using APOPTEST™-FITC A700 (VPS Diagnostics, Hoeven, the Netherlands) according to the instructions of the manufacturer. In short, induction of apoptosis was determined after 24 h’ drug exposure. One million cells were harvested and washed 3 times with ice-cold PBS. The cell pellet was incubated for 30 min with 7-Amino-actinomycin D (7-AAD) on ice followed by incubation with Annexin-V according to the instructions of the manufacturer. Annexin-V (early apoptosis) and 7-AAD (late apoptosis) staining was measured by flow cytometry (Beckton & Dickinson, FACScalibur) and analysed using FCSexpress V3 software (Denovo software, Thornhill, Canada)."}, "[25]": {"test_system": "THP1/WT cells", "assay": "Apoptosis assay (Annexin-V/7-AAD flow cytometry)", "assay_type": "cell-based, human", "details": "24 h exposure", "procedure": "as §2"}, "[26]": {"test_system": "proteasome", "assay": "Proteasome inhibitory effect of cleavage product (data not shown)"}, "[27]": {"assay": "Cell growth inhibitory potential of cleavage product (data not shown)", "assay_type": "cell-based"}}, "note": "Like-named read-outs stand apart in the source and are kept apart here. Where a SMILES comes first, the peptide text is derived from it. The star is where a group is joined. Cbz = O=C(OCc1ccccc1)*; NHBn = c1ccc(CN*)cc1; OBn = c1ccc(CO*)cc1; Bn = c1ccc(C*)cc1; OtBu = CC(C)(C)O*"}
{"compound": "4A6-dimer: dimer form of 4A6, contains the same amino acid sequence as 4A6 (THTXEG; The dimer linkage, and any protecti)", "values": [{"measurement": "IC50", "setting": "[1]", "value": "490 ± 120", "unit": "nM"}]}
{"compound": "CC(=O)N[C@H](C(=O)N[C@@H](CCC(=O)OC(C)(C)C)C(=O)N[C@@H](CCC(=O)OCc1ccccc1)C(=O)N[C@@H](CC(=O)OC(C)(C)C)C(=O)N[C@@H](CCC(=O)OC(C)(C)C)C(=O)NCC(=O)NCc1ccccc1)[C@@H](C)OCc1ccccc1", "note": "[4E11, Ac-Thr(OBzl)-Glu(OtBu)-Glu(OBzl)-Asp(OtBu)-Glu(OtBu)-Gly-Bza] (Ac-T(Bn)E(OtBu)E(OBn)D(OtBu)E(OtBu)G-NHBn)", "values": [{"measurement": "IC50", "setting": "[2]", "value": "3900 ± 800", "unit": "nM"}]}
{"compound": "CC(C)C[C@H](NC(=O)[C@H](Cc1ccccc1)NC(=O)c1cnccn1)B(O)O", "note": "[Bortezomib, Pyrazylcarbonyl-Phe-Leu-boronate]", "values": [{"measurement": "inhibition of β-subunit activity probing", "setting": "[3]", "value": "predominantly inhibited β5-subunit probing"}, {"measurement": "accumulation of ubiquitinated proteins", "setting": "[4]", "value": "marked accumulation of ubiquitinated proteins"}, {"measurement": "effect of Ruthenium Red on growth inhibitory activity (protection)", "setting": "[5]", "value": "marked abrogation"}, {"measurement": "orders of magnitude more potent than 4A6", "setting": "[6]", "value": "2–3 orders of magnitude"}, {"measurement": "GI50", "setting": "[7]", "value": 0.1, "unit": "nM"}, {"measurement": "GI50", "setting": "[8]", "value": 0.422, "unit": "nM"}, {"measurement": "GI50", "setting": "[9]", "value": 2.44, "unit": "nM"}, {"measurement": "GI50", "setting": "[10]", "value": 0.105, "unit": "nM"}, {"measurement": "GI50", "setting": "[11]", "value": 0.363, "unit": "nM"}, {"measurement": "GI50", "setting": "[12]", "value": 0.389, "unit": "nM"}, {"measurement": "GI50", "setting": "[13]", "value": 0.724, "unit": "nM"}, {"measurement": "GI50", "setting": "[14]", "value": 1.95, "unit": "nM"}, {"measurement": "GI50", "setting": "[15]", "value": 0.11, "unit": "nM"}, {"measurement": "GI50", "setting": "[16]", "value": 32.9, "unit": "nM"}, {"measurement": "GI50", "setting": "[17]", "value": 0.891, "unit": "nM"}, {"measurement": "GI50", "setting": "[18]", "value": 0.422, "unit": "nM"}, {"measurement": "IC50", "setting": "[19]; growth inhibition", "value": "0.0033 ± 0.0006", "unit": "µM"}, {"measurement": "[Resistance Factor] THP1/WT", "setting": "[19]; reference value in square brackets", "value": 1}, {"measurement": "IC50", "setting": "[20]", "value": "3 to 5", "unit": "nM"}, {"measurement": "[Resistance Factor] THP1/BTZ50", "setting": "[21]", "value": 45}, {"measurement": "[Resistance Factor] THP1/BTZ100", "setting": "[22]", "value": 79}, {"measurement": "[Resistance Factor] THP1/BTZ200", "setting": "[23]", "value": 129}]}
{"compound": "CC(C)C[C@@H](C=O)NC(=O)[C@H](CC(C)C)NC(=O)[C@H](CC(C)C)NC(=O)OCc1ccccc1", "note": "[MG132, Z-Leu-Leu-Leucinal] (Cbz-Leu-Leu-Leu-aldehyde)", "values": [{"measurement": "inhibition of β-subunit activity probing", "setting": "[3]", "value": "blocked activity probing of all β-subunits"}]}
{"compound": "COc1cc([C@@H]2c3cc4c(cc3[C@@H](O[C@@H]3O[C@@H]5CO[C@@H](C)O[C@H]5[C@H](O)[C@H]3O)[C@H]3COC(=O)[C@H]23)OCO4)cc(OC)c1O", "note": "[etoposide, reference compound]", "values": [{"measurement": "induction of apoptosis", "setting": "[24]", "value": "equally effective in inducing apoptosis"}, {"measurement": "induction of apoptosis", "setting": "[25]", "value": "equally effective in inducing apoptosis"}]}
{"compound": "Ac-Thr(tBu)-His(Bzl)-Thr(Bzl)-Nle-OH", "values": [{"measurement": "proteasome inhibitory effect", "setting": "[26]", "value": "did not show any proteasome inhibitory effect"}, {"measurement": "cell growth inhibitory potential", "setting": "[27]", "value": "did not show any proteasome inhibitory effect or cell growth inhibitory potential"}]}
